Reference: paper PMC7168264, “Modified Aminoglycosides Bind Nucleic Acids in High-Molecular-Weight Complexes” (Antibiotics, 2020)
Where “and” joins values, the source holds several entries; their conditions need not be identical. Equal values may be shown once. Read-outs that look alike come from different tables or passages of the source.

Legend:
[1] = target: T1, HIV-1 RT Y181C (Human immunodeficiency virus type 1 group M subtype B, UniProt P04585, Y768C); experiment: Multi-nucleotide primer extension assay, Y181C HIV-1 RT; type: biochemical
T1 construct: overexpress HIV-1 RT subunits p66 and His6-tagged p51; made in house; host or cells: E. coli BL21/DE3 (p66) and DH5α (His6-p51)
Procedure: (§1) Plasmids pET-RT66 and p6H-RT51, which overexpress HIV-1 RT subunits p66 and His6-tagged p51, were generously provided by Samuel Wilson (NIH). Mutations K103N and Y181C were each introduced into pET-RT66 using QuikChange^TM mutagenesis. Subunits p66 and His6-p51 were overproduced in E. coli strains BL21/DE3 and DH5α, respectively, and the RT heterodimer (WT or mutant forms) was reconstituted in mixed lysates and purified essentially as described. Each overexpression strain was grown in LB medium with appropriate antibiotics at 37 °C until the culture reached an OD600 of 0.6, IPTG (0.5 mM) was added, and the culture was further incubated for 3.5 h to allow ample protein production. Cells (from 4 L culture) were pelleted and stored at −20 °C. All subsequent steps were performed at 4 °C. Each cell pellet was resuspended in 20 mL buffer A [50 mM Tris-HCl (pH 7.9), 60 mM NaCl, 10% glycerol, 1 mM βME, and protease inhibitors (Protease Inhibitor Cocktail, Roche Diagnostics)], and the cells were lysed using a French Press. The lysate was clarified by centrifugation at 5900 g for 15 min, and the protein concentration of each lysate was estimated using the Bradford assay. Based on these estimates, each p66 strain lysate was separately mixed with p51 strain lysate in a 3:1 ratio. Each mixture was passed through a Q-Sepharose column (2 mL, Bio-Rad), pre-equilibrated with buffer A, and the flow-through (containing HIV-1 RT) was collected. NaCl (0.5 M), imidazole (10 mM), and 4 mL of His-Bind nickel column resin (Ni-NTA Agarose, QIAGEN) pre-equilibrated in buffer B [50 mM Tris-HCl (pH 7.9), 500 mM NaCl, 10 mM imidazole, 10% glycerol, and 1 mM βME] were added, and the mixture was rotated for 1 h. The resin was poured into a column and washed with 10 column volumes (CV) of buffer B, 10 CV of buffer C [50 mM Tris-HCl (pH 7.9), 1 M NaCl, 10 mM imidazole, 10% glycerol, and 1 mM βME], and 10 CV of buffer D [50 mM Tris-HCl (pH 7.9), 1 M NaCl, 15 mM imidazole, 10% glycerol, and 1 mM βME]. Proteins were eluted from the column with an imidazole gradient (10–500 mM) in buffer B. Fractions (0.5 mL) were collected, and DTT (2 mM) and EDTA (5 mM) were added to each fraction. Fractions were analyzed by SDS-PAGE, and those containing p66 and p51 at a 1:1 ratio were pooled. The RT was further purified using a FPLC RESOURCE S column (6 mL, GE Healthcare). The protein was bound to the column, washed with 10 CV of buffer E [50 mM Tris-HCl (pH 6.5), 60 mM NaCl, 10% glycerol, and 1 mM βME], and eluted using a NaCl gradient. Fractions (0.5 mL) containing purified RT with p66 and p51 subunits at a 1:1 ratio were pooled, dialyzed against buffer F [50 mM Tris-HCl (pH 7.5), 100 mM NaCl, 1 mM βME, and 10% glycerol], and stored at −20 °C.
(§2) To assay multi-nucleotide incorporation by RT, 5′-[^32P]-labeled primer (~0.05 µM) was annealed to mRNA (0.33 µM, unless otherwise indicated), RT (HIV-1 or AMV; 32 nM) and the four deoxynucleotide triphosphates (dNTPs; 375 µM each) in buffer G [10 mM Tris-HCl (pH 7.5), 60 mM NH4Cl, 10 mM MgCl2, and 6 mM βME] were added, in the absence or presence of inhibitor (as indicated), and reactions were incubated at 37 °C for 10 min. An equal volume of stop buffer (95% formamide, 20 mM EDTA, 0.05% xylene cyanol, and 0.05% bromophenol blue) was added, and products were analyzed by denaturing 7% PAGE. The relative amount of the full-length cDNA product (y) was plotted as a function of inhibitor concentration, and the data were fit to the modified dose response equation y = a + b/[1 + (x/c)]

[2] = test system: avian myeloblastosis virus (AMV) reverse transcriptase (RT); experiment: Multi-nucleotide primer extension assay, AMV RT; type: biochemical; conditions: primer extension on RNA template, 10 min at 37 °C; read-out: IC50, full-length cDNA product, AMV RT
Procedure: as §2

[3] = target: T2, HIV-1 RT K103N (Human immunodeficiency virus type 1 group M subtype B, UniProt P04585, K690N); experiment: Multi-nucleotide primer extension assay, K103N HIV-1 RT; type: biochemical; conditions: mean ± SEM from 3 or more independent experiments
T2 construct: overexpress HIV-1 RT subunits p66 and His6-tagged p51; made in house; host or cells: E. coli BL21/DE3 (p66) and DH5α (His6-p51)
Procedure: as §1, §2

[4] = target: HIV-1 RT WT (Human immunodeficiency virus type 1 group M subtype B, UniProt P04585); experiment: biochemical
Procedure: as §1, §2

[5] = test system: AMV RT; experiment: Single-nucleotide incorporation kinetics (quench-flow), AMV RT; type: biochemical, avian myeloblastosis virus; conditions: read-out: IC50, amplitude of single-nucleotide incorporation
Procedure: (§3) Single-nucleotide incorporation by RT was measured using a quench-flow machine (KinTek RQF-3). Typically, 5′-[^32P]-labeled primer (<0.05 µM) was annealed to mRNA (0.2 µM), equilibrated in buffer H [Tris-HCl (pH 7.5), 80 mM KCl, 20 mM MgCl2, 2 mM DTT] with RT (AMV or HIV-1, as indicated) in the absence or presence of inhibitor (as indicated), and rapidly mixed with dATP (variable concentration, as indicated). Each reaction was quenched with 0.5 M EDTA at various time points; the data were plotted and fit to a single exponential equation to obtain observed rate and amplitude.

[6] = target: T3, HIV-1 RT (Human immunodeficiency virus type 1 group M subtype B, UniProt P04585); experiment: Order-of-addition single-nucleotide incorporation, HIV-1 RT; type: biochemical; conditions: 20 min 37 °C, then combined 1 min
T3 construct: overexpress HIV-1 RT subunits p66 and His6-tagged p51; made in house; host or cells: E. coli BL21/DE3 (p66) and DH5α (His6-p51)
Procedure: as §3

[7] = target: Radiolabeled DNA oligonucleotide; experiment: Ultrafiltration binding experiment, DNA oligonucleotide; conditions: fraction in complexes >300 kDa by ultrafiltration (300 kDa MWCO), buffer H, 25 °C, 15 min, read-out: apparent KD, DNA oligonucleotide
Procedure: (§4) For binding reactions, components were incubated in buffer H at 25 °C for 15 min. The fraction of bound 5′-[^32P]-labeled nucleic acid was evaluated using native 6% PAGE or ultrafiltration devices (Nanosep Omega, PALL Life Sciences).

[8] = target: Radiolabeled RNA oligonucleotide; experiment: Ultrafiltration binding experiment, RNA oligonucleotide; conditions: fraction in complexes >300 kDa by ultrafiltration (300 kDa MWCO), buffer H, 25 °C, 15 min, read-out: apparent KD, RNA oligonucleotide
Procedure: as §4

[9] = test system: radiolabeled 18mer DNA oligonucleotide; experiment: Gel mobility shift experiment (native PAGE); type: binding; conditions: compound 100 µM preincubated with 18mer DNA, native gel electrophoresis
Procedure: as §4

SMILES	IC50 [1] [µM]	IC50 [2]	IC50 [3] [µM]	IC50 [4] [µM]	IC50 ([5]; dATP at 10 µM) [µM]	IC50 ([5]; dATP at 150 µM) [µM]	Product formation, single-nucleotide incorporation ([6]; compound preincubated with RT)	Product formation, single-nucleotide incorporation ([6]; compound preincubated with primer:template in the absence of RT)	Kd ([7]; listed as KAN-C12) [µM]	Kd [7] [µM]	Kd ([8]; listed as KAN-C12) [µM]	Kd [8] [µM]	Gel mobility shift of oligonucleotide [9]
CCCCCCCCCCCCCCSC[C@H]1O[C@H](O[C@@H]2[C@@H](O)[C@H](O[C@H]3O[C@H](CN)[C@@H](O)C[C@H]3N)[C@@H](N)C[C@H]2N)[C@H](O)[C@@H](N)[C@@H]1O [TOB-C14]	1.4 ± 0.4	~1 µM and 1.1 µM	1.2 ± 0.6	1.9 ± 0.3									
CCCCCCCCCCSC[C@H]1O[C@H](O[C@@H]2[C@@H](O)[C@H](O[C@H]3O[C@H](CN)[C@@H](O)[C@H](O)[C@H]3N)[C@@H](N)C[C@H]2N)[C@H](O)[C@@H](N)[C@@H]1O [KANB-C10]	1 ± 0.6		1.9 ± 0.3	3.8 ± 0.3									
CCCCCCCCCCCCSC[C@H]1O[C@H](O[C@@H]2[C@@H](O)[C@H](O[C@H]3O[C@H](CN)[C@@H](O)C[C@H]3N)[C@@H](N)C[C@H]2N)[C@H](O)[C@@H](N)[C@@H]1O [TOB-C12]	0.5 ± 0.1	~1 µM and 1.6 µM	0.6 ± 0.1	0.3 ± 0.1	13	17	hindered product formation to a lesser degree	no detectable product					
CCCCCCCCSC[C@H]1O[C@H](O[C@@H]2[C@@H](O)[C@H](O[C@H]3O[C@H](CN)[C@@H](O)[C@H](O)[C@H]3N)[C@@H](N)C[C@H]2N)[C@H](O)[C@@H](N)[C@@H]1O [KANB-C8]	8 ± 2		7 ± 1	8 ± 3									
NC[C@H]1O[C@H](O[C@H]2[C@H](O)[C@@H](O[C@H]3O[C@H](CSc4ccc5ccccc5c4)[C@@H](O)[C@H](N)[C@H]3O)[C@H](N)C[C@@H]2N)[C@H](N)C[C@@H]1O [TOB-Nap]	12 ± 4	23 µM	40 ± 11	40 ± 5									
CCCCCCCCCCCCSC[C@H]1O[C@H](O[C@@H]2[C@@H](O)[C@H](O[C@H]3O[C@H](CN)[C@@H](O)[C@H](O)[C@H]3N)[C@@H](N)C[C@H]2N)[C@H](O)[C@@H](N)[C@@H]1O [KANB-C12]	0.5 ± 0.3		2 ± 0.2	1.9 ± 0.3					0.6	~1	1.1	~1	all signal was shifted to the well
